Laboratory results: ChEMBL document CHEMBL6134848, “Deuteration Strategy-Inspired Design of Novel Diarylpyrimidine Derivatives as Potent Non-Nucleoside Reverse Transcriptase Inhibitors Featuring Improved Efficacy, Selectivity, and Druggability” (J Med Chem, 2025)

How the values were obtained:
[1] = Stability in human plasma assessed as compound remaining at 1 uM measured immediately by LC-MS/MS analysis; assay type: ADME, cell-free; conditions: read-out: Stability
[2] = molecular target: Cytochrome P450 3A4 (Homo sapiens, UniProt P08684); assay: Inhibition of CYP3A4 in human liver microsomes using midazolam as substrate incubated for 15 to 45 mins by; assay type: ADME, Microsome
Chain of Cytochrome P450 3A4 (P08684 whole entry): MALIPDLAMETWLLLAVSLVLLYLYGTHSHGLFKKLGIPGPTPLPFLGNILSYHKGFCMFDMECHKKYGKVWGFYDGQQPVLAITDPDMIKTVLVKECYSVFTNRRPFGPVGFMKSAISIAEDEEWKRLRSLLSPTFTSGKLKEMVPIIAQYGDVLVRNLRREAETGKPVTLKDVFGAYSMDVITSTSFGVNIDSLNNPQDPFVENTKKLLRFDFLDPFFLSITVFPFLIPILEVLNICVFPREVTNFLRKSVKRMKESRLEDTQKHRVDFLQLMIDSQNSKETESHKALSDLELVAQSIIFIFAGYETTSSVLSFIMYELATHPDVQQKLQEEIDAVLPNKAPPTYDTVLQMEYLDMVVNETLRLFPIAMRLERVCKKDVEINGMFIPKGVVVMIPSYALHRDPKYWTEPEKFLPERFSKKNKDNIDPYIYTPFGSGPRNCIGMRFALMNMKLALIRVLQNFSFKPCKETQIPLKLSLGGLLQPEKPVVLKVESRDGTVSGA

[3] = system: Human immunodeficiency virus 1; assay: Antiviral activity against wild-type HIV-1 IIIB infected in human MT4 cells assessed as protection against virus-induced cytopathicity measured after 5 days post-infection by MTT assay; assay type: functional, organism-based; conditions: Human immunodeficiency virus 1, IIIB, MT4, 120 h
[4] = system: Human immunodeficiency virus 1; assay: Potency index, ratio of NVP EC50 to test compound EC50 for antiviral activity against wild-type HIV-1 IIIB infected in human MT4 cells assessed as protection against virus-induced cytopathicity measured after 5 days post-infection by MTT assay; assay type: functional
[5] = molecular target: Cytochrome P450 2C19 (Homo sapiens, UniProt P33261); assay: Inhibition of CYP2C19 in human liver microsomes using S-mephenytoin as substrate incubated for 15 to 45 mins by; assay type: ADME, Microsome
Chain of Cytochrome P450 2C19 (P33261 whole entry): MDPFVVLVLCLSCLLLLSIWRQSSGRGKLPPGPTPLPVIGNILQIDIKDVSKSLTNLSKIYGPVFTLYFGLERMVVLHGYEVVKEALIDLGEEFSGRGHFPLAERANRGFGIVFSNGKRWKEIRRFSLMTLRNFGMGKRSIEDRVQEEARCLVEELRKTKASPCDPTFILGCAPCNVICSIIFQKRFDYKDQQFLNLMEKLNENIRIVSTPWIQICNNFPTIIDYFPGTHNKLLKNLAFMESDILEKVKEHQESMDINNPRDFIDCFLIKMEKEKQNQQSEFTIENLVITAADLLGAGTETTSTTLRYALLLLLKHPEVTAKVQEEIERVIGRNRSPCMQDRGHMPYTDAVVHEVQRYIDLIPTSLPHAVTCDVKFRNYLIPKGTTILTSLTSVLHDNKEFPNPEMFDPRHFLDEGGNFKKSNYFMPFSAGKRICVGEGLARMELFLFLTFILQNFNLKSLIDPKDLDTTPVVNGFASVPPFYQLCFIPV

[6] = Half life in Sprague-Dawley rat at 10 mg/kg, po measured for 0.083 to 24 hrs by LC-MS/MS analysis; assay type: ADME, organism-based; conditions: in vivo, time 0.083-24 hrs
[7] = Metabolic stability in dog liver microsomes assessed as half life at 1 uM measured up to 45 mins by LC/MS/MS analysis; assay type: ADME, Canis lupus familiaris, Microsome; conditions: microsomes, 0.75 h, 1 µM
[8] = molecular target: T1, Cytochrome P450 2C8 (Homo sapiens, UniProt P10632); assay: Inhibition of CYP2C8 in human liver microsomes using amodiaquine as substrate incubated for 15 to 45 mins by; assay type: ADME, Microsome
T1 sequence (P10632 whole entry): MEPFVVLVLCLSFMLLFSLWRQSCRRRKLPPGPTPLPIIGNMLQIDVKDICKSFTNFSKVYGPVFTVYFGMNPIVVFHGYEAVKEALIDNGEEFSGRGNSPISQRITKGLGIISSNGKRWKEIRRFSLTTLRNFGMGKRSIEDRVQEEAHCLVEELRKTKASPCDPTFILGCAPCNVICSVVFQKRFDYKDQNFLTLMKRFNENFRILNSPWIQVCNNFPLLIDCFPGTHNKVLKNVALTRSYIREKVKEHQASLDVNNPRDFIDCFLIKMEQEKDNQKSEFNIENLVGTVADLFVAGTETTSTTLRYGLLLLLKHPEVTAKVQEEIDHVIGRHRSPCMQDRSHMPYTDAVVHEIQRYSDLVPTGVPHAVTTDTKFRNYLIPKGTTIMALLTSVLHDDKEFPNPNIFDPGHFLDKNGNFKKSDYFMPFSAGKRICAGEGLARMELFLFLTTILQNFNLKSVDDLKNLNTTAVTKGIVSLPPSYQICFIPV

[9] = Drug metabolism in dog liver microsomes assessed as metabolic fraction at 1 uM measured up to 45 mins by LC/MS/MS analysis; assay type: ADME, Canis lupus familiaris, Microsome; conditions: microsomes, 0.75 h, 1 µM
[10] = Clearance in Sprague-Dawley rat at 1 mg/kg, iv measured for 0.083 to 24 hrs by LC-MS/MS analysis; assay type: ADME, organism-based; conditions: in vivo, time 0.083-24 hrs
[11] = MRT (0 to infinity) in Sprague-Dawley rat at 10 mg/kg, po measured for 0.083 to 24 hrs by LC-MS/MS analysis; assay type: ADME, organism-based; conditions: in vivo, time 0.083-24 hrs
[12] = system: Human immunodeficiency virus 1; assay: Antiviral activity against drug-resistant HIV-1 harboring RT E138K mutant infected in human MT4 cells assessed as protection against virus-induced cytopathicity measured after 5 days post-infection by MTT assay; assay type: functional, organism-based; conditions: Human immunodeficiency virus 1, MT4, 120 h
[13] = Tmax in Sprague-Dawley rat at 10 mg/kg, po measured for 0.083 to 24 hrs by LC-MS/MS analysis; assay type: ADME, organism-based; conditions: in vivo, time 0.083-24 hrs
[14] = system: Human immunodeficiency virus 1; assay: Antiviral activity against drug-resistant HIV-1 harboring RT L100I mutant infected in human MT4 cells assessed as protection against virus-induced cytopathicity measured after 5 days post-infection by MTT assay; assay type: functional, organism-based; conditions: Human immunodeficiency virus 1, MT4, 120 h
[15] = MRT (0 to t) in Sprague-Dawley rat at 1 mg/kg, iv measured for 0.083 to 24 hrs by LC-MS/MS analysis; assay type: ADME, organism-based; conditions: in vivo, time 0.083-24 hrs
[16] = molecular target: Human immunodeficiency virus type 1 reverse transcriptase (Human immunodeficiency virus 1, UniProt Q72547); assay: Inhibition of recombinant wild type HIV-1 reverse transcriptase incubated for 40 mins in presence of poly(rA) template/oligo(dT)16 primer by Pico-Green dye based analysis
[17] = molecular target: T2, Voltage-gated inwardly rectifying potassium channel KCNH2 (Homo sapiens, UniProt Q12809); assay: Inhibition of hERG expressed in CHO cells by manual patch-clamp electrophysiology; assay type: toxicity, cell-based
T2 sequence (Q12809 whole entry): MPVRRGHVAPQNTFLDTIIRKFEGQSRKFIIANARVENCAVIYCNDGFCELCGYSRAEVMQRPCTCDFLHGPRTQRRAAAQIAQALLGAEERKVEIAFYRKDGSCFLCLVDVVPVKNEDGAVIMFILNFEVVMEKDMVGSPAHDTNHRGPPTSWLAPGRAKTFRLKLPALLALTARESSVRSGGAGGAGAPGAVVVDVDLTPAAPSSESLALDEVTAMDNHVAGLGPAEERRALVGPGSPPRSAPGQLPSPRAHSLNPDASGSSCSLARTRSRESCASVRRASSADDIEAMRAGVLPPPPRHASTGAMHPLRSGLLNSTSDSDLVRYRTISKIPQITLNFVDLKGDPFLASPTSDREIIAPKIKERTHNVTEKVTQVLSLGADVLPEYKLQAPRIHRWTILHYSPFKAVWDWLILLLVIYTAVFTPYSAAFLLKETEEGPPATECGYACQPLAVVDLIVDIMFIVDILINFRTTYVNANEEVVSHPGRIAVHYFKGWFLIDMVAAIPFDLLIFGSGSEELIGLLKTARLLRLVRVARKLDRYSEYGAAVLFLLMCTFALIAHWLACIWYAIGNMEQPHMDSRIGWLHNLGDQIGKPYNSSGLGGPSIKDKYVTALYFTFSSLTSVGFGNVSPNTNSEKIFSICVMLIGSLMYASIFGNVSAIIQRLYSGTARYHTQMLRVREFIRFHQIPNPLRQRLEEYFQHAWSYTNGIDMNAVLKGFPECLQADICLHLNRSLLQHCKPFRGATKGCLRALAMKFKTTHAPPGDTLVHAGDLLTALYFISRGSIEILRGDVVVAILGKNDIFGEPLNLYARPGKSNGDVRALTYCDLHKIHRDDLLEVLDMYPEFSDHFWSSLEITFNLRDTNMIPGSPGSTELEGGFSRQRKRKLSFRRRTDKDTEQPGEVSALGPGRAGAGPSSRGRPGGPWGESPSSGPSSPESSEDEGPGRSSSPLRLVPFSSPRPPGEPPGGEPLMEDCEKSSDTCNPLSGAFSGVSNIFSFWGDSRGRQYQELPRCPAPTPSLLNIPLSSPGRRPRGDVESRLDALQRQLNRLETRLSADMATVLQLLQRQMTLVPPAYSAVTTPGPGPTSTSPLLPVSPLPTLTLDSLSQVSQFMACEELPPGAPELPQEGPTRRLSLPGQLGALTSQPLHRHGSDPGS

[18] = MRT (0 to t) in Sprague-Dawley rat at 10 mg/kg, po measured for 0.083 to 24 hrs by LC-MS/MS analysis; assay type: ADME, organism-based; conditions: in vivo, time 0.083-24 hrs
[19] = system: Human immunodeficiency virus 1; assay: Potency index, ratio of EFV EC50 to test compound EC50 for antiviral activity against wild-type HIV-1 IIIB infected in human MT4 cells assessed as protection against virus-induced cytopathicity measured after 5 days post-infection by MTT assay; assay type: functional
[20] = Stability in human plasma assessed as compound remaining at 1 uM measured after 0.5 hrs by LC-MS/MS analysis; assay type: ADME, cell-free; conditions: read-out: Stability
[21] = molecular target: Cytochrome P450 2C9 (Homo sapiens, UniProt P11712); assay: Inhibition of CYP2C9 in human liver microsomes using diclofenac as substrate incubated for 15 to 45 mins by; assay type: ADME, Microsome
Chain of Cytochrome P450 2C9 (P11712 whole entry): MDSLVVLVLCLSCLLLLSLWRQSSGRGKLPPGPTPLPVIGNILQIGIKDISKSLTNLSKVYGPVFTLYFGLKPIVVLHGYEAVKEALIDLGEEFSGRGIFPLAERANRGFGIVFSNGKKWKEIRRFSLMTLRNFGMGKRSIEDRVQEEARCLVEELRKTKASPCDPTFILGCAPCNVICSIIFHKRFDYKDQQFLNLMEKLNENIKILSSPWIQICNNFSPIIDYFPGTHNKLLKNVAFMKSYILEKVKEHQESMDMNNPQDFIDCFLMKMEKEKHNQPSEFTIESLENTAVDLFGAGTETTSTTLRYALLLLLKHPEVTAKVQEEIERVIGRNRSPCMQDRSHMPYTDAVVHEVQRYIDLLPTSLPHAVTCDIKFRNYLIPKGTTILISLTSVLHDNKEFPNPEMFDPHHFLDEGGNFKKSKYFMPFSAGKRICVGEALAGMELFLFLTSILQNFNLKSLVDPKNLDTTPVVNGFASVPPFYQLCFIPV

[22] = Acute toxicity in ICR mouse assessed as pathological change in liver at 2000 mg/kg, IG measured for 14 days by H and E staining based analysis; assay type: organism-based; conditions: in vivo, po, 336 h, time 14 day
[23] = Cmax in Sprague-Dawley rat at 10 mg/kg, po measured for 0.083 to 24 hrs by LC-MS/MS analysis; assay type: ADME, organism-based; conditions: in vivo, time 0.083-24 hrs
[24] = Drug metabolism in human liver microsomes assessed as metabolic fraction at 1 uM measured up to 45 mins by LC/MS/MS analysis; assay type: ADME, Microsome; conditions: microsomes, 0.75 h, 1 µM
[25] = Cmax in Sprague-Dawley rat at 1 mg/kg, iv measured for 0.083 to 24 hrs by LC-MS/MS analysis; assay type: ADME, organism-based; conditions: in vivo, time 0.083-24 hrs
[26] = Stability in human liver microsomes assessed as compound remaining at […] preincubated for 30 mins in ice-water bath followed by incubation at 37 degreeC for 5 mins and further addition of NADPH/UDPGA measured 20.86 mins by LC-MS/MS analysis; assay type: ADME, Microsome; conditions: time 55.86 min, read-out: Stability
[27] = system: Human immunodeficiency virus 1; assay: Antiviral activity against drug-resistant HIV-1 harboring RT K103N mutant infected in human MT4 cells assessed as protection against virus-induced cytopathicity measured after 5 days post-infection by MTT assay; assay type: functional, organism-based; conditions: Human immunodeficiency virus 1, MT4, 120 h
[28] = molecular target: T2, Voltage-gated inwardly rectifying potassium channel KCNH2; assay: Inhibition of hERG expressed in CHO cells assessed as fold increase by manual patch-clamp electrophysiology relative to RPV; assay type: toxicity, cell-based

[2H]C([2H])([2H])c1cc(C#N)cc(C([2H])([2H])[2H])c1Oc1nc(NC2CCN(Cc3ccc(S(N)(=O)=O)cc3)CC2)nc2ccsc12
remaining at 0 h, 1 µM [1]: 100%
IC50 [2]: > 10000 nM
EC50 [3]: 0.99 nM
Ratio EC50 [4]: 256
IC50 [5]: > 10000 nM
half-life [6]: 1.58 h
t1/2 [7]: 0.34 h
IC50 [8]: > 10000 nM
Fm [9]: 17.3%
clearance [10]: 22.9 mL/min/kg
MRT inf [11]: 2.69 h
EC50 [12]: 7.75 nM
Tmax [13]: 0.5 h
EC50 [14]: 2.61 nM
MRT last [15]: 0.82 h
IC50 [16]: 190 nM
IC50 [17]: 932 nM
MRT last [18]: 2.38 h
Ratio EC50 [19]: 5
remaining at 0.5 h, 1 µM [20]: 98.9%
IC50 [21]: > 10000 nM
Activity [22]: Non-toxic
Cmax [23]: 553 ng/mL
Fm [24]: 14.8%
Cmax [25]: 1240 ng/mL
remaining at 0.347667 h [26]: 58.8%
EC50 [27]: 1.13 nM
fold change (FC) [28]: 1.9
